Data published in patent US9359373B1, “Lipophilic N-substituted norcantharimide derivatives and uses thereof” (priority 2014, dated 2016).
Where two headings read alike, the source gives them in different places.

Assays:
L1210 cells = test: Syngeneic L1210 tumor in vivo therapy; parameters: species or system DBA/2 mice
Experimental: The DBA/2 mice (about 7 weeks old, 18-22 g) were obtained from BioLASCO Taiwan Co., Ltd. All mice were housed in specific pathogen-free condition with ad libitum access to water and laboratory chow. A solution of L1210 cells was injected into the subcutaneous tissue to establish a syngeneic tumor. Alternatively, the L1210 cells was injected peritoneally. All animal experiments were performed in accordance with the guidelines of the Animal Welfare Committee of Taipei Veterans General Hospital (Taiwan, R.O.C.).
(§1) To inoculate tumor, L1210 cells (1×10^6 cells per injection) were injected either subcutaneously or intraperitoneally to lab animals to generate tumors on day 1. After 7 days, NOC15 or NC15 (diluted in normal saline) was administered intra-peritoneally at a dose of 18 mg/kg every day for 7 days. The average body weight (BW) of the animals was measured daily.
After treatment, mice were sacrificed, and their tumors, livers and spleens were harvested and weighted, respectively; and white blood cells (WBC) counts were also measured.
(§2) Mice were inoculated with L1210 tumor cells in accordance with the procedures described in the section of “Materials and Methods.” For in vivo therapy, animals were given 18 mg/Kg NOC15 or NC15 by intra-peritoneal route, for a period of at least 7 days. Tumor size, animal body weight, respective weights of liver and spleen, as well as the white blood cell count of each animal were then measured respectively at the indicated time. Results are depicted in FIGS. 8 to 11, respectively.

SW480 = test: MTT cell viability, SW480; type: cell-based, human; conditions: Mean ± SD, read-out: Growth Inhibition IC50 SW480
Experimental: (§3) Cell lines used in the present disclosure include human liver carcinonoma cell line HepG2, human bladder carcinoma cell line BFTC905, human colon carcinoma cell lines HT29 and SW480, and human leukemia cell lines HL60 and Jurkat T, and mouse lymphocytic leukemia cell line L1210. Each cell lines were cultured and maintained in Dulbecco's modified Eagle media (DMEM) or RPMI 1640 medium supplemented with 10% heat inactivated fetal bovine serum (FBS), 1% penicillin/streptomycin, in 5% CO2195% air at 37° C.
(§4) The absorbance of the solution at 540 nm was measured by spectrophotometer. The IC50 values were defined as the drug concentration that inhibit 50% cell growth by setting the viability of untreated cells as 100%. Values were represented as the mean±SD from at least 3 independent experiments.
(§5) Effects of the compounds of formula (I) of this disclosure, specifically, NOC15 and NC 15, on HepG2 cells (liver carcinoma), BFTC905 (bladder carcinoma), HT29 (colon carcinoma), SW480 (colon carcinoma) and HL60 (leukemia) were assessed by cell viability analysis in accordance with procedures described above, in which compound 2, and other known anti-cancer agents including 5-FU, cisplatin and doxorubicin were respectively used as positive controls.

normal hepatic cells = test: Ex vivo growth of normal hepatic cells; type: cell-based; conditions: at about 8.2 μM
[1] = Body weight of treated animals; type: in vivo, mice; conditions: 18 mg/Kg, compared with healthy normal control, FIG. 11
Experimental: as §1, §2

HepG2 cells [2] = test: Hoechst 33528 staining, nuclear morphological changes; type: cell-based, human; conditions: 40 μM, 48 hours, FIG. 1
Experimental: Staining with Hoechst 33528 was performed according to the method described previously (Huang et al., Cytotechnology 2009, 59, 201-208). Briefly, cells were treated with 40 μM norcantharidin, NOC15, or NC15 for 48 hours, then washed with PBS saline and stained with Hoechst 33528 (Sigma, St. Louis, Mo., USA) at a final concentration of 10 μg/mL. The slides were examined under a fluorescence microscope. Cells with a small nucleus, a high fluorescence intensity (due to chromatin condensation) or nuclear fragmentation were considered apoptotic.
To further investigate the role of apoptosis in the cytotoxicity of NOC15 and NC15, HepG2 cells were incubated with compound 2, NOC15 and NC15, respectively, for 48 hours; then were stained with Hoechst 33528 and examined by fluorescence microscope for any topical morphological changes.

HT29 = test: MTT cell viability, HT29; type: cell-based, human; conditions: Mean ± SD, read-out: Growth Inhibition IC50 HT-29
Experimental: as §3, §4, §5

HepG2 cells [3] = test: Cell cycle distribution by flow cytometry (PI), HepG2; type: cell-based, human; conditions: 48 hours, FIG. 2
Experimental: (§6) Cultured cells with or without pre-treatment of the compounds of this invention (i.e., norcantharidin, NOC15, or NC15, 10-60 μM for 48 hours) were harvested from the cultured media and fixed by incuating with 75% iced cold ehtanol and kept at −20° C. until analysis. The fixed cells were then washed with PBS, and treated with […] (200 μg/mL, 500 μL) for about 1.5 hour at 37° C. Precipitated cells were collected by centrifugation and re-suspended in a buffer solution containing propidium iodine (PI) (40 μg/ml) and incubated in the dark for 20 min at 20-25° C. before being subject to flow cytometry analysis, where cell numbers at respective cell cycles were determined.
(§7) HepG2 cells were treated with 10-60 μM of the test compounds for 48 hours, then cell cycle distribution and apoptosis analysis was analyzed by flow cytometry, with the subG1 phase being stained with propidium idoine (PI). Results are illustrated in FIGS. 2 and 3.

HL60 = test: MTT cell viability, HL60; type: cell-based, human; conditions: for IC50: MTT, 48 hours, Mean ± SD, read-out: Growth Inhibition IC50 HL-60; for response of leukemia cell line HL60 to treatment: in words, from Table 1
Experimental: as §3, §4, §5

BFTC905 = test: MTT cell viability, BFTC905; type: cell-based, human; conditions: Mean ± SD, read-out: Growth Inhibition IC50 BFTC905
Experimental: as §3, §4, §5

Jurkat T cells = test: Cell cycle distribution by flow cytometry, Jurkat T cells; type: cell-based, human; conditions: for percentage of cells in subG1 phase: FIG. 5, FIG. 7
Experimental: as §6
Cell cycle distribution was determined by flow cytometry as described in the “Materials and Methods” section. Results is depicted in FIG. 5.
In this example, Jurkat T cells were treated with or without NC15 (2.513 μM) for 24 or 48 hours before being subject to cell cycle analysis. Results are depicted in FIG. 7.

HepG2 cells [4] = test: Apoptotic analysis annexin-V/PI flow cytometry; type: cell-based, human; conditions: 10-60 μM, 48 hours, FIG. 3
Experimental: The percentage of apototic cells was determined according to the manufacturer's protocol by using an annexin-V/FITC kit/propidium iodine (PI) flow cytometer. To facilitate the detection of apoptosis, the treated cells were centrifuged for 5 min at a speed of 1,000×g at room temperature, and then resuspended and washed once with 5 mL PBS before being stained with annexin-V/PI (apoptosis detection kit, R&D Systems, Taipei, Taiwan).
as §7

HepG2 cells [5] = test: MTT cell viability, HepG2; type: cell-based, human
Experimental: as §3, §4, §5
In this example, effects of NOC15 or NC15 on HepG2 cells were assessed by cell viability analysis in accordance with procedures described above, in which compound 2 was used as a positive control.

[6] = test system: human lymphoblast cells (NHL); test: Cell viability (CCK-8), normal lymphoblast cells; type: cell-based; conditions: 24 hours (NC15: 24 and 48 hours), FIG. 4, FIG. 6
Experimental: (§8) The cell viability assays were performed in 96-well plates. The 100 μl of cell suspensions (NHL or Jurkat T cells, 5×10^3 cells/well, serum-free medium) were inoculated in the wells and the plates were pre-incubated in the incubator for 24 hours (pre-incubated for 22 hours and stimulated with PMA 5 ng/ml plus ionomycin 250 ng/ml for 2 hours in PMAI-treated groups). Then, various concentrations of norcantharidin (0, 2, 4, 15, 30 and 60 μM) or NOC15 (0, 0.25, 0.5, 1, 2 and 4 μM) were added into the culture media in the wells. After 24 hours of incubation, the cell viability of NHL and Jurkat T cells was measured by cell counting kit-8 (CCK-8, Sigma). The half maximal inhibitory concentrations (IC50) of norcantharidin and NOC15 on Jurkat T cells and NHL cells were calculated.
(§9) In this example, a model of phorbol 12-myristate 13-acetate plus ionomycin (PMAI) activated leukemia Jurkat T cells model was employed to investigate the effects of the NOC15 on human leukemia cells (Jurkat T cells) and human lymphoblast cells (NHL).

[7] = test system: human leukemia cells (Jurkat T cells); test: Cell viability (CCK-8), PMAI activated leukemia Jurkat T cells model; type: cell-based
Experimental: as §8, §9

[8] = Homo sapiens, BFTC-905, 48 hours
[9] = Homo sapiens, HepG2, 24 h, Mean ± SD, read-out: Growth Inhibition On Hepatic Cancer Cells IC50 24 hrs
[10] = Homo sapiens, HepG2, 48 h, MTT, 48 hours, Mean ± SD, read-out: Growth Inhibition IC50 HepG2
[11] = Homo sapiens, HepG2, 48 h, Mean ± SD, read-out: Growth Inhibition On Hepatic Cancer Cells IC50 48 hrs
[12] = Homo sapiens, HepG2, 72 h, Mean ± SD, read-out: Growth Inhibition On Hepatic Cancer Cells IC50 72 hrs
[13] = MTT, 48 hours, Mean ± SD, read-out: Growth Inhibition IC50 HepG2

SMILES | IC50 (SW480; Homo sapiens, SW480, 48 hours) [µM] | nuclear morphological changes (apoptosis features) (HepG2 cells [2]) | IC50 (HT29; Homo sapiens, HT-29, 48 hours) [µM] | IC50 (HL60; Homo sapiens, HL-60) [µM] | response of leukemia cell line HL60 to treatment (HL60) | IC50 (BFTC905; [8]) [µM] | percentage of apoptotic cells / cell death (HepG2 cells [4]) | IC50 (HepG2 cells [5]; [9]) [µM] | IC50 (HepG2 cells [5]; [10]) [µM] | IC50 (HepG2 cells [5]; [11]) [µM] | IC50 (HepG2 cells [5]; [12]) [µM] | IC50 (SW480; 48 hours) [µM] | IC50 (HT29; 48 hours) [µM] | IC50 (HL60) [µM] | IC50 (HepG2 cells [5]; [13]) [µM] | further results
CC(C)=CCCC(C)=CCCC(C)=CCON1C(=O)C2C3CCC(O3)C2C1=O (stereo not drawn) [Compound 9, N-farnesyloxy-7-oxabicyclo[2.2.1]heptane-2,3-dicarboximide] | 18.5 ± 2.3 | Significant morphological features of apotosis | 9.7 ± 1.7 | 39 ± 1.1 | did respond | 11.3 ± 1 | dose-dependent | 10.7 ± 0.2 | 8.3 ± 1.3 | 8.3 ± 1.3 | 8.2 ± 0.6 |  |  |  |  | weight of liver (L1210 cells; IP-inoculated tumor, 18 mg/kg i.p., FIG. 9B): improved significantly; weight of spleen (L1210 cells; IP-inoculated tumor, 18 mg/kg i.p., FIG. 9C): improved significantly; increase in life span (L1210 cells; SC-inoculated tumors, 18 mg/kg i.p. daily, FIG. 8A): about 40%; weight of s.c. tumor (L1210 cells; SC-inoculated, 18 mg/kg i.p., FIG. 9A): Significant reduction; white blood cell (WBC) counts (L1210 cells; day 14, SC- or IP-injected L1210, 18 mg/kg i.p., FIG. 10): significant reductions; effect on normal hepatic cells (normal hepatic cells): un-affected; total body weight along the course of treatment [1]: gradually improved the total body weight; accumulation of cells in G2/M phase (HepG2 cells [3]; 10-60 μM): inducing the accumulation of cells in G2/M phase; percentage of cells in subG1 phase (Jurkat T cells; treated 24 hours (NC15 2.513 μM)): increased; percentage of cells in subG1 phase (Jurkat T cells; treated 48 hours (NC15 2.513 μM)): increased; percentage of cells in G2/M phase (Jurkat T cells; treated 48 hours, FIG. 5C): increased; IC50 (HepG2 cells [5]; Homo sapiens, HepG2, hepatic cancerous cells, time not given, read-out: concentration inhibiting ex vivo growth of hepatic cancerous cells for about 50%): ~8.2 µM
COc1cccc2c1C(=O)c1c(O)c3c(c(O)c1C2=O)C[C@@](O)(C(=O)CO)C[C@@H]3O[C@H]1C[C@H](N)[C@H](O)[C@H](C)O1 [Doxorubicin, doxorubicin] | 0.5 ± 0.1 |  | 1.7 ± 0.2 | 14.3 ± 0.9 |  |  |  |  | 0.3 |  |  |  |  |  |  | 
O=c1[nH]cc(F)c(=O)[nH]1 [Compound 5-FU, 5-FU] |  |  |  |  | did not respond well |  |  |  |  |  |  | 32.7 ± 8.3 | > 100 | > 100 | 40.2 ± 7.6 | IC50 (BFTC905; 48 hours): > 100 µM
O=C1OC(=O)C2C3CCC(O3)C12 (stereo not drawn) [Compound 2, 7-oxabicyclo[2.2.1]heptane-2,3-dicarboxylic anhydride, reference compound] | 49.1 ± 8.4 | Significant morphological features of apotosis | 19.5 ± 0.2 | > 100 |  | 18.9 ± 0.3 | cytoxic effect was only observed when high concentration of compound 2 was used | 48 ± 0.7 | 42 ± 1.8 | 42 ± 1.8 | 22.8 ± 0.6 |  |  |  |  | cytotoxicity to normal lymphatic/lymphoblast cells (NHL) [6]: did not possess significant cytotoxicity; fraction of apoptotic cells (subG1) (HepG2 cells [3]; 10 μM): only a small fraction of apoptotic cells; fraction of apoptotic cells (subG1) (HepG2 cells [3]; 20 μM): 1.6%; fraction of apoptotic cells (subG1) (HepG2 cells [3]; 60 μM): 16.7%; cytotoxicity to leukemia Jurkat T cells ([7]; 24 hours (NC15: 24 and 48 hours), FIG. 4, FIG. 6): toxic; percentage of viable cells if pre-treated with PMA ([7]; PMA plus ionomycin pre-treatment, FIG. 4): increased slightly
N.N.[Cl][Pt][Cl] [Cisplatin, cisplatin] |  |  |  |  | did not respond well |  |  |  |  |  |  | 40.7 ± 1.2 | 24.1 ± 0.1 | > 100 | 36.1 ± 3.1 | 
